Experimental data reported in ChEMBL document CHEMBL5532667 (J Med Chem, 2024).
pIC50: −log10 of the molar value. In brackets after ≈: the same amount, converted by molar mass.

Experiments:
Progesterone receptor = target: T1, Progesterone receptor (Homo sapiens, UniProt P06401); assay type: cell-based, HEK293T
T1 sequence (P06401 whole entry): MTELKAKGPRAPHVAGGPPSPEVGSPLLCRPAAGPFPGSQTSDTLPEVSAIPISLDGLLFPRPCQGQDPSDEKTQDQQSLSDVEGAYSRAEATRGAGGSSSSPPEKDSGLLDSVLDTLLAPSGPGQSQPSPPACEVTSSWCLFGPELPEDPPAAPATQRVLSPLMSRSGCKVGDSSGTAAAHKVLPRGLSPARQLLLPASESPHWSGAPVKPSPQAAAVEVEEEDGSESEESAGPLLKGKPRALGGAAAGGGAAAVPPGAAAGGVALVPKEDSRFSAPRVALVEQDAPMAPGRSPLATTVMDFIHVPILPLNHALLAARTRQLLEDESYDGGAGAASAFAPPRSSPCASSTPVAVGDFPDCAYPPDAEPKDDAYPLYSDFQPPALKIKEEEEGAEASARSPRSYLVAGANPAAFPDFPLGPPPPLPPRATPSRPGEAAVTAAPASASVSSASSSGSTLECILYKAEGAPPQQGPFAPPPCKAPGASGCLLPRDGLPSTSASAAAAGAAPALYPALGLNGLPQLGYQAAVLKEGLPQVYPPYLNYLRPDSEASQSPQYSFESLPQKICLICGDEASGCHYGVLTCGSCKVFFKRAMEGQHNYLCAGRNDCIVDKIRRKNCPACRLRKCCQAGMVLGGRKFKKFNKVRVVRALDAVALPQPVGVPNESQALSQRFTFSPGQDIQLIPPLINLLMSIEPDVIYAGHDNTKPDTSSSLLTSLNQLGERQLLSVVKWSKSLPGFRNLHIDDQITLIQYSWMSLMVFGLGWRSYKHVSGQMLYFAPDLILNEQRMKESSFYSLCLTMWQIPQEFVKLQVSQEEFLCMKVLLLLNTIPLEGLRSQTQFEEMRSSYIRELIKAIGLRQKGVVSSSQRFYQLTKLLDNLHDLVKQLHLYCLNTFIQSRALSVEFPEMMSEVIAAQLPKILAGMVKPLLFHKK
Description: Antagonist activity at PR in HEK293T cells assessed as reduction in transcriptional activity incubated for 24 hrs by britelite plus reagent based plate reader assay

[1] = target: T2, Thyroid hormone receptor beta (Homo sapiens, UniProt P10828); assay type: cell-based, HEK293T
T2 sequence (P10828 whole entry): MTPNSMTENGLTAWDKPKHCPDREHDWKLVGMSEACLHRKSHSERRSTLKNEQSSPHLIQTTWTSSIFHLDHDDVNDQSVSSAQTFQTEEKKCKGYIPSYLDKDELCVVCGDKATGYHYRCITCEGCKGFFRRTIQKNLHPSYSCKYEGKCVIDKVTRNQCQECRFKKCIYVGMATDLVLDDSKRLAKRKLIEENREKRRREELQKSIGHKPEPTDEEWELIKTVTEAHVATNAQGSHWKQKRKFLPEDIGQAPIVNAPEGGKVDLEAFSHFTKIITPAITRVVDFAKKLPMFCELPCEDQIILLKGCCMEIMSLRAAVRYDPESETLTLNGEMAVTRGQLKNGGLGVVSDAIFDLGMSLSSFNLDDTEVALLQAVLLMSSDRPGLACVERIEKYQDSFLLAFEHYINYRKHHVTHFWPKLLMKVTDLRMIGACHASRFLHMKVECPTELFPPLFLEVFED
Description: Antagonist activity at TRbeta in HEK293T cells assessed as reduction in transcriptional activity incubated for 24 hrs by britelite plus reagent based plate reader assay

in vivo [2] = settings: C57BL/6, mouse, iv, 1 mg/kg
in vivo [3] = settings: C57BL/6, mouse, iv, 1 mg/kg; remark: listed apart in the source
in vivo [4] = settings: C57BL/6, mouse, iv, 1 mg/kg; remark: listed apart in the source
in vivo [5] = settings: C57BL/6, mouse, brain, iv, 1 mg/kg
in vivo [6] = settings: C57BL/6, mouse, iv, 1 mg/kg; remark: listed apart in the source
in vivo [7] = settings: C57BL/6, mouse, iv, 1 mg/kg; remark: listed apart in the source
NIH3T3 = assay: cells; settings: Mus musculus, BALB/c, NIH3T3, light or radiation study
Description: Phototoxicity against BALB/c mouse 3T3 cells assessed as reduction in cell viability preincubated for 1 hr followed by 5 J/cm2 irradiation and subsequent replacement of medium without compound and measured after 24 hrs by neutral red dye based assay

in vitro = settings: mouse, nih3t3
Description: Dark toxicity against BALB/c mouse 3T3 cells assessed as reduction in cell viability incubated for 1 hr by neutral red dye based assay

In the case of `C[C@](O)(CN1CC2CC(C1)N2c1ccc(C#N)cc1)C(=O)Nc1cnc(C#N)c(C(F)(F)F)c1`, the pIC50 (Progesterone receptor) was 5.46 and the pIC50 [1] was less than 5.00.
`C[C@](O)(CN1CC2CC(C1)N2c1ccc(C#N)cc1F)C(=O)Nc1cnc(C#N)c(C(F)(F)F)c1` showed a C0 at 24 h (in vivo [2]) of 1060 ng/mL, a clearance at 24 h (in vivo [3]) of 37.8 mL/min/kg and a Vd at 24 h (in vivo [4]) of 1.35 L/kg. It also gave a Kp at 24 h (in vivo [5]) of 0.45, an AUC(0-t) at 24 h (in vivo [6]) of 444 ng·h/mL and a half-life at 24 h (in vivo [7]) of 54.6 min.
Molecule `CN(C)CCCN1c2ccccc2Sc2ccc(Cl)cc21` [CHLORPROMAZINE] has an IC50 (NIH3T3) of 0.93 µg/mL (≈ 2.92 µM) and an IC50 at 1 h (in vitro) of 45.1 µg/mL (≈ 141 µM).
